# From ChEMBL document CHEMBL4619748, “Enhancing the activity of membrane remodeling epsin-peptide by trimerization” (Bioorg Med Chem Lett, 2020)
# Calls of active or inactive are those of the source. The rule behind the calls is not given here. Starred links: 1 amine or outer side, 2 acyl side, 3 side chain; linkers in the order of their positions; H or OH if unused. Positions of bridges follow the written chain, without caps; N, C: chain ends. Non-standard residues stand in square brackets, D forms with d. Chains are numbered I, II in the order given. εLys = N[C@@H](CCCCN[*:1])C(=O)[*:2]; Nle = CCCC[C@H](N)C(=O)O
# What was measured:
# [1] = system: HeLa; assay: Induction of membrane-remodelling in human HeLa cells assessed as increase in cell internalization of FITC-R8 peptide at 0.5 uM incubated for 30 mins by PI staining based assay relative to control; type: cell membranes
# [2] = system: HeLa; assay: Induction of membrane-remodelling in human HeLa cells assessed as increase in cell internalization of FITC-R8 peptide at 1 uM incubated for 30 mins by PI staining based assay; type: cell membranes
# [3] = system: HeLa; assay: Cytotoxicity against human HeLa cells assessed as proportion of cells with ruptured cell membrane at 1 uM incubated for 30 mins in presence of 10 uM FITC-R8 peptide by propidium iodide staining based assay; conditions: 0.5 h
# [4] = system: Lipid bilayer; assay: Binding affinity to POPC/POPS (3:1) LUVs assessed as stabilization of drug peptide's alpha helical signature with CD minima at around 208 and 222 nm and a positive ellipticity below 200 nm at 6.7 uM by CD spectroscopy
# [5] = system: HeLa; assay: Induction of membrane-remodelling in human HeLa cells assessed as loosening of the lipid package by measuring decrease in generalized polarization of cell membrane at 0.5 uM incubated for 10 mins by di-4-ANEPPDHQ polarity-sensitive fluorescent membrane probe based confocal microscopic method; type: cell membranes
# [6] = Cytotoxicity against human HeLa cells assessed as cell viability at <=1 uM by WST8 assay; type: cell-based; conditions: read-out: Activity
# [7] = system: HeLa; assay: Induction of membrane-remodelling in human HeLa cells assessed as increase in cell internalization of FITC-R8 peptide at 0.25 uM incubated for 30 mins by PI staining based assay; type: cell membranes
# [8] = system: Lipid bilayer; assay: Induction of membrane-remodelling in DOPE bilayer assessed as phase transition temperature required for conversion of lamellar L-alpha phase to inverted hexagonal HII phase at peptide to lipid molar ratio of 1:100 by solid-state 31P NMR analysis (reference value: 25 degC)
substance,measurement,setting,value
"I: H-[Nle]SSLRRQ[Nle]KNIVHNYS[εLys]GKGKG-OH / II: H-[Nle]SSLRRQ[Nle]KNIVHNYS / III: H-[Nle]SSLRRQ[Nle]KNIVHNYS (amide I:19-III:C, I:21-II:C)",Activity,[1],60%
same,Activity,[2],inactive
same,Activity,[3],> 10%
same,Activity,[4],Active
same,Activity,[5],Active
same,viability,[6],> 90%
same,Activity,[7],Active
same,T,[8],46 °C
